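A five-concentration, 48-hour dose response in 96-well plates underlies each endpoint, interpolated linearly between surrounding concentrations. GI50: concentration for 50% inhibition of growth.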 Calls of active or inactive are those of the source. Rule as the data show it: active = GI50 up to about 1.1 µM and inactive = higher.
Tests used:
Assay in all cases: NCI tumour cell line growth inhibition, 48 h
DLD-1 = test system: DLD-1
DMS-114 = test system: DMS-114
DMS-273 = test system: DMS-273
KM-20L2 = test system: KM-20L2
SNB-78 = test system: SNB-78
XF498 = test system: XF498
LXFL 529 = test system: LXFL 529
M19-MEL = test system: M19-MEL
RXF 631 = test system: RXF 631

Measured: GI50

C=CCCCCn1c2ccccc2c2c(C)c3cnccc3c(C)c21
inactive: DLD-1 7.11 µM | DMS-114 3.94 µM | DMS-273 5.14 µM | KM-20L2 6.38 µM | SNB-78 12.1 µM | XF498 1.95 µM

CC1=C2[C@@H](c3ccccc3)C3C=CC2(C=C3C(F)(F)F)N(C(=O)NC2CCCCC2)C1=O (some centres undefined)
inactive: DLD-1 > 100 µM | DMS-114 35.1 µM | DMS-273 80 µM | KM-20L2 93.1 µM | LXFL 529 36.1 µM | M19-MEL 54.6 µM | RXF 631 39.7 µM | SNB-78 36.1 µM | XF498 > 100 µM

C1CCC(OCc2nnn3c2CCC3)OC1 (centres undefined)
inactive: DLD-1 > 100 µM | KM-20L2 > 100 µM | LXFL 529 > 100 µM | M19-MEL > 100 µM | SNB-78 > 100 µM | XF498 > 100 µM

Cn1cc(C(=O)c2ccccc2)ccc1=O
inactive: DLD-1 > 100 µM | DMS-114 > 100 µM | DMS-273 > 100 µM | KM-20L2 > 100 µM | LXFL 529 > 100 µM | M19-MEL > 100 µM | SNB-78 > 100 µM | XF498 > 100 µM

CCOC(=O)C1(Cc2ccc3ccccc3c2)CCCCC(=O)N1 (centres undefined)
inactive: DLD-1 25.6 µM | DMS-114 18.6 µM | DMS-273 13.5 µM | KM-20L2 30.5 µM | LXFL 529 38 µM | M19-MEL 48.6 µM | SNB-78 52.7 µM | XF498 30.4 µM

N/C(S)=N/N=C/c1ccc(O)cn1
inactive: DLD-1 21.4 µM | DMS-273 3.75 µM | LXFL 529 19.7 µM | M19-MEL 11.1 µM | RXF 631 31.2 µM | XF498 12.4 µM

Nc1c(/N=N/c2ccc(-c3ccc(/N=N/c4c(O)ccc5cc(S(=O)(=O)O)cc(S(=O)(=O)O)c45)cc3)cc2)c(S(=O)(=O)O)cc2cc(S(=O)(=O)O)c(/N=N/c3ccccc3)c(O)c12
inactive: DLD-1 > 100 µM | DMS-114 > 100 µM | DMS-273 > 86.9 µM | M19-MEL > 100 µM | SNB-78 > 84.3 µM | XF498 > 67.6 µM

CC1=C(C(=O)Nc2cccc(Cl)c2)C(c2ccc([N+](=O)[O-])cc2)C(C(=O)Nc2cccc(Cl)c2)=C(C)N1
inactive: DLD-1 21.8 µM | DMS-114 21.2 µM | KM-20L2 20.2 µM | LXFL 529 23.5 µM | RXF 631 19.8 µM | SNB-78 36.1 µM

C/C=C/c1cc2c(c(=O)o1)C(=O)[C@@H](O)[C@H](C)O2
inactive: DLD-1 6.28 µM | DMS-114 6.75 µM | DMS-273 16 µM | KM-20L2 16.1 µM | M19-MEL 13.4 µM | SNB-78 18.8 µM

COc1ccc(Nc2nc3ccccc3nc2-c2cccs2)cc1
inactive: DLD-1 > 100 µM | DMS-114 92.9 µM | DMS-273 > 100 µM | KM-20L2 60 µM | LXFL 529 54.5 µM | SNB-78 39.5 µM | XF498 78.2 µM

CCCCCCCCCC/C=C/C=O
inactive: DLD-1 > 100 µM | DMS-114 > 100 µM | DMS-273 > 100 µM | KM-20L2 > 100 µM | LXFL 529 > 100 µM | M19-MEL > 100 µM | SNB-78 > 100 µM | XF498 > 100 µM

C=CC[N+](CCO)(CCO)CCCCCCCCCCCCCCCCCC
inactive: DLD-1 5.93 µM | DMS-114 3.96 µM | DMS-273 2.26 µM | KM-20L2 3.66 µM | M19-MEL 3.34 µM | SNB-78 3.12 µM

O=C(/C(=C/c1ccc(O)cc1)c1ccccc1)c1ccccc1
inactive: DLD-1 15.9 µM | DMS-114 11.5 µM | LXFL 529 16.4 µM | M19-MEL 18.4 µM | RXF 631 15.3 µM | SNB-78 24 µM

COc1cc2oc(-c3ccc(O)cc3)cc(=O)c2c(O)c1C1OC(CO)C(O)C(O)C1O (centres undefined)
inactive: DLD-1 > 100 µM | DMS-114 > 100 µM | DMS-273 62.4 µM | KM-20L2 > 100 µM | LXFL 529 > 100 µM | M19-MEL > 100 µM | SNB-78 > 100 µM | XF498 > 100 µM

N#CCC(=O)N/N=C1/C(=O)N(c2ccc(Cl)cc2)C(=O)C(=O)C1c1nc2ccccc2s1 (centres undefined)
inactive: DLD-1 > 100 µM | DMS-114 > 100 µM | DMS-273 > 100 µM | KM-20L2 > 100 µM | LXFL 529 > 100 µM | M19-MEL 40.7 µM | SNB-78 > 100 µM | XF498 > 100 µM
